ChEMBL document CHEMBL3885881, “DrugMatrix”

Organism: Rattus norvegicus
Test: DrugMatrix - Regimen: Daily Repeat
Assay type: toxicity, organism-based, Sprague-Dawley
Set-up: regimen Daily Repeat, gender Male, age 6-8 weeks
Conditions: in vivo, po, route oral GAVAGE, vehicle 100 % SALINE; for ABSOLUTE BASOPHIL / ABSOLUTE EOSINOPHIL / ABSOLUTE LYMPHOCYTE / ABSOLUTE MONOCYTE / ABSOLUTE SEGMENTED NEUTROPHIL / BASOPHIL / EOSINOPHIL / ERYTHROCYTE COUNT / HEMATOCRIT / HEMOGLOBIN / LEUKOCYTE COUNT / LYMPHOCYTE / MEAN CORPUSCULAR HEMOGLOBIN / MEAN CORPUSCULAR HEMOGLOBIN CONCENTRATION / MEAN CORPUSCULAR VOLUME / MONOCYTE / NEUTROPHIL / NUCLEATED RED BLOOD CELLS / PLATELET COUNT: tissue Blood; for ALANINE AMINOTRANSFERASE / ALBUMIN / ALKALINE PHOSPHATASE / ASPARTATE AMINOTRANSFERASE / BLOOD UREA NITROGEN / CARBON DIOXIDE / CHLORIDE / CHOLESTEROL / CREATINE PHOSPHOKINASE / CREATININE / GLUCOSE / LACTATE DEHYDROGENASE / LIPASE / PHOSPHORUS / POTASSIUM / SODIUM / TOTAL BILIRUBIN / TOTAL PROTEIN / URIC ACID: tissue Plasma
[1] = 0 mg/kg, 72 h, dose level Control, time 3 day
[2] = 0 mg/kg, 120 h, dose level Control, time 5 day
[3] = 11 mg/kg, 72 h, dose level High, time 3 day

Cc1cc(CC(=O)O)n(C)c1C(=O)c1ccc(Cl)cc1 [ZOMEPIRAC]
ABSOLUTE BASOPHIL [1]: 0 CELLS/uL | ABSOLUTE EOSINOPHIL [1]: 65.67 CELLS/uL | ABSOLUTE LYMPHOCYTE [1]: 17283.5 CELLS/uL | ABSOLUTE MONOCYTE [1]: 0 CELLS/uL | ABSOLUTE SEGMENTED NEUTROPHIL [1]: 1284.17 CELLS/uL | BASOPHIL [1]: 0% | EOSINOPHIL [1]: 0.33% | ERYTHROCYTE COUNT [1]: 5.46 x10E6/uL | HEMATOCRIT [1]: 34.28% | HEMOGLOBIN [1]: 13.78 G/DL | LEUKOCYTE COUNT [1]: 18.63 x10E3/uL | LYMPHOCYTE [1]: 92.67% | MEAN CORPUSCULAR HEMOGLOBIN [1]: 25.3 pg | MEAN CORPUSCULAR HEMOGLOBIN CONCENTRATION [1]: 40.22 G/DL | MEAN CORPUSCULAR VOLUME [1]: 62.87 fL | MONOCYTE [1]: 0% | NEUTROPHIL [1]: 7% | NUCLEATED RED BLOOD CELLS [1]: 0 /100WBC | PLATELET COUNT [1]: 1244.83 x10E3/uL | ALANINE AMINOTRANSFERASE [1]: 52.83 u/L | ALBUMIN [1]: 4 G/DL | ALKALINE PHOSPHATASE [1]: 327.67 u/L | ASPARTATE AMINOTRANSFERASE [1]: 78.83 u/L | BLOOD UREA NITROGEN [1]: 13.83 mg/dL | CARBON DIOXIDE [1]: 26.67 mmol/L | CHLORIDE [1]: 99.67 MEQ/L | CHOLESTEROL [1]: 69 mg/dL | CREATINE PHOSPHOKINASE [1]: 350.17 u/L | CREATININE [1]: 0.21 mg/dL | GLUCOSE [1]: 173.83 mg/dL | LACTATE DEHYDROGENASE [1]: 168.33 u/L | LIPASE [1]: 11 u/L | PHOSPHORUS [1]: 12.7 mg/dL | POTASSIUM [1]: 6.88 MEQ/L | SODIUM [1]: 141.68 MEQ/L | TOTAL BILIRUBIN [1]: 0.22 mg/dL | TOTAL PROTEIN [1]: 6.02 G/DL | URIC ACID [1]: 1.9 mg/dL | ABSOLUTE BASOPHIL [2]: 0 CELLS/uL | ABSOLUTE EOSINOPHIL [2]: 14.83 CELLS/uL | ABSOLUTE LYMPHOCYTE [2]: 12880 CELLS/uL | ABSOLUTE MONOCYTE [2]: 90.67 CELLS/uL | ABSOLUTE SEGMENTED NEUTROPHIL [2]: 864.5 CELLS/uL | BASOPHIL [2]: 0% | EOSINOPHIL [2]: 0.17% | ERYTHROCYTE COUNT [2]: 5.83 x10E6/uL | HEMATOCRIT [2]: 35.87% | HEMOGLOBIN [2]: 14 G/DL | LEUKOCYTE COUNT [2]: 13.85 x10E3/uL | LYMPHOCYTE [2]: 92.5% | MEAN CORPUSCULAR HEMOGLOBIN [2]: 24.03 pg | MEAN CORPUSCULAR HEMOGLOBIN CONCENTRATION [2]: 39.03 G/DL | MEAN CORPUSCULAR VOLUME [2]: 61.53 fL | MONOCYTE [2]: 0.67% | NEUTROPHIL [2]: 6.67% | NUCLEATED RED BLOOD CELLS [2]: 0 /100WBC | PLATELET COUNT [2]: 1041.83 x10E3/uL | ALANINE AMINOTRANSFERASE [2]: 56 u/L | ALBUMIN [2]: 4.47 G/DL | ALKALINE PHOSPHATASE [2]: 319 u/L | ASPARTATE AMINOTRANSFERASE [2]: 89.17 u/L | BLOOD UREA NITROGEN [2]: 15.2 mg/dL | CARBON DIOXIDE [2]: 24 mmol/L | CHLORIDE [2]: 104.4 MEQ/L | CHOLESTEROL [2]: 69.5 mg/dL | CREATINE PHOSPHOKINASE [2]: 295.83 u/L | CREATININE [2]: 0.21 mg/dL | GLUCOSE [2]: 124.33 mg/dL | LACTATE DEHYDROGENASE [2]: 325.5 u/L | LIPASE [2]: 14.67 u/L | PHOSPHORUS [2]: 11.45 mg/dL | POTASSIUM [2]: 6.74 MEQ/L | SODIUM [2]: 151.4 MEQ/L | TOTAL BILIRUBIN [2]: 0.23 mg/dL | TOTAL PROTEIN [2]: 6.45 G/DL | URIC ACID [2]: 1.18 mg/dL | ABSOLUTE BASOPHIL [3]: 0 CELLS/uL | ABSOLUTE EOSINOPHIL [3]: 0 CELLS/uL | ABSOLUTE LYMPHOCYTE [3]: 16900 CELLS/uL | ABSOLUTE MONOCYTE [3]: 480 CELLS/uL | ABSOLUTE SEGMENTED NEUTROPHIL [3]: 3253.33 CELLS/uL | BASOPHIL [3]: 0% | EOSINOPHIL [3]: 0% | ERYTHROCYTE COUNT [3]: 5.38 x10E6/uL | HEMATOCRIT [3]: 33.2% | HEMOGLOBIN [3]: 13.37 G/DL | LEUKOCYTE COUNT [3]: 20.63 x10E3/uL | LYMPHOCYTE [3]: 83.67% | MEAN CORPUSCULAR HEMOGLOBIN [3]: 24.83 pg | MEAN CORPUSCULAR HEMOGLOBIN CONCENTRATION [3]: 40.27 G/DL | MEAN CORPUSCULAR VOLUME [3]: 61.67 fL | MONOCYTE [3]: 2% | NEUTROPHIL [3]: 14.33% | NUCLEATED RED BLOOD CELLS [3]: 0 /100WBC | PLATELET COUNT [3]: 1231.67 x10E3/uL | ALANINE AMINOTRANSFERASE [3]: 59 u/L | ALBUMIN [3]: 3.87 G/DL | ALKALINE PHOSPHATASE [3]: 255.33 u/L | ASPARTATE AMINOTRANSFERASE [3]: 72.67 u/L | BLOOD UREA NITROGEN [3]: 13.33 mg/dL | CARBON DIOXIDE [3]: 25.33 mmol/L | CHLORIDE [3]: 101 MEQ/L | CHOLESTEROL [3]: 69 mg/dL | CREATINE PHOSPHOKINASE [3]: 224.67 u/L | CREATININE [3]: 0.23 mg/dL | GLUCOSE [3]: 183.67 mg/dL | LACTATE DEHYDROGENASE [3]: 112.67 u/L | LIPASE [3]: 10.33 u/L | PHOSPHORUS [3]: 11.5 mg/dL | POTASSIUM [3]: 5.88 MEQ/L | SODIUM [3]: 141.43 MEQ/L | TOTAL BILIRUBIN [3]: 0.2 mg/dL | TOTAL PROTEIN [3]: 5.77 G/DL | URIC ACID [3]: 1.47 mg/dL
